The text below walks through data of patent publication US7045138B2, “Composition for mitigation of insects and/or mollusca” (American Natural Technology Sciences, Inc., priority 2000, dated 2006).

This assay has as its system Fire Ants. As to the kind of experiment: Fire ant mound field tests of bait/borate formulations. Type of assay: in vivo, Solenopsis invicta. The procedure:
The following components were tested either alone or in combinations for their ability to attract Fire Ants: • 1. Cow manure dropping in an infested area; • 2. Pelletized cow manure; • 3. Milk; • 4. Powdered, fresh and pelletized whey; • 5. Sugar solutions of varying concentrations; • 6. Raw fruit and vegetables of various kinds and concentrates; • 7. Various soft drinks containing sugar; • 8. Bacon and other raw meats; • 9. Vegetable and animal oils, both in liquid or solid; • 10. Dog and cat foods in bags, cans, or packaged in some other manner; • 11. Corn or other vegetable products in the form of meal, syrup, cracked, particles and flakes and other particles; • 12. Wheat and rice as bleached and unbleached, flower or granules; • 13. Millet seeds whole and crushed; • 14. Sunflower seeds whole, crushed and with various vegetable oils added; • 15. Microcapsules of whey and other materials, made to hold various, foods, etc.; and • 16. Capsules made of various vegetable water, sugar, starches, proteins, etc. that contain the bait and/or borates and/or DE.
Mounds were selected of varying sizes measured in diameter: • 1. Small mound (1 inch to 6 inches) • 2. Medium mound (6 inches to 3.0 feet) • 3. Large mound (3.0 feet and larger) • 4. Control
When possible, isolated mounds were selected.
The formulations were tested individually at different sites: • 1. Standard was one level teaspoon for a small mound, two for a medium mound and three or more for a large mound; and • 2. Volume vs. weight was noted.
The following data was collected for each site: • 1. Location • 2. Data and time of application • 3. Observation are conducted at: • a. One hour; • b. Four hours; • c. Twelve hours; • d. One day; • e. Two days; • f. Four days; • g. Eight days; • h. Sixteen days; and • i. Intermittent observations based upon climatic conditions. • 4. Weather data collected include: • a. Temperature; • b. Humidity; • c. Rainfall (time of day and extent); and • d. Wind speed and direction • 5. General observations
The time of application is preferably near evening (5 p.m. or later) or early morning (5 a.m. to 9 a.m.).

Consider Disodium octoborate tetrahydrate [DOT], for which, under “DOT combined with whey bait”, the degree of control result is reported as “high degree of control”. Also, the “acceptance by the Fire Ants” value (incorporated with the baits tested) was “readily accepted”. Where the note is “preliminary data”, the “acceptable formulation level for control into the second generation” value is on record as approximately 1.0% and the “acceptable formulation level for first generation control” value is reported as ~0.05 % of the formulation.
Consider calcium borate, for which the performance result (5% substituted for the DOT, with whey) is “superior performance”.
